Results published in US9757432B2, “Materials and methods useful for treating glioblastorna” (Ohio State Innovation Foundation, priority 2012, dated 2017).
Residues, ends and D or L forms follow the SMILES beside them. *: point of attachment. Cbz = O=C(OCc1ccccc1)*; CH2F = FC*

The compounds below were run on glioma cells (assay: Rescue of SapC-DOPS-induced killing by pathway inhibitors). Conditions: inhibitor given with SapC-DOPS.
Format: cell-based
Source text: Synergy analysis was completed using CompuSyn software.

Structure (SMILES)	rescue of SapC-DOPS-induced killing
CO/C1=C\C(C)=C\[C@@H](C)[C@@H](O)[C@@H](C)C/C(C)=C/C=C/[C@H](OC)[C@@H]([C@@H](C)[C@@H](O)[C@H](C)[C@@]2(O)C[C@@H](O)[C@H](C)[C@@H](C(C)C)O2)OC1=O [bafilomycin Al]	significant rescue
Cn1cnc(N)c2ncnc1-2 [3-methyladeneine]	significant rescue
COC(=O)C[C@H](NC(=O)[C@H](C)NC(=O)[C@@H](NC(=O)OCc1ccccc1)C(C)C)C(=O)CF [Z-VAD-FMK] (Cbz-Val-Ala-Asp(OMe)-CH2F)	did not rescue
